Laboratory results as given in patent US20140357713A1, “ANTIMICROBIAL COMPOUNDS AND METHODS OF USE” (NexMed Holdings, Inc., priority 2012, published 2014).
Where a name gives a salt, the structure may show the parent alone. Read-outs that look alike come from different tables or passages of the source.

Assays:
[1] = pH (Table 1); format: physicochemical; details: hydrochloride
[2] = tested on: Escherichia coli (ATCC 25922); assay: Minimum inhibitory concentration (MIC) assay, Example 33; format: cell-based; details: for MIC: Escherichia coli
Outline: (§1)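 Broth microdilution MIC per CLSI guidelines, in CAMHB with serial 2-fold compound dilutions. Bacterial inocula were adjusted to a 0.5 McFarland standard, then diluted 1:100 and 1:2 in the wells. Plates were incubated at 35 °C, and the MIC was read according to CLSI.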

[3] = tested on: Pseudomonas aeruginosa (ATCC 27853); assay: as above; format: cell-based; details: Pseudomonas aeruginosa
Outline: as §1

[4] = tested on: Staphulococcus aureus (ATCC 29213); assay: as above; format: cell-based, Staphylococcus aureus; details: Staphylococcus aureus, ATCC29213, read-out: MIC S. aureus, n = 1
Outline: as §1

[5] = tested on: Candida albicans (ATCC 90029); assay: as above; format: cell-based; details: Candida albicans
Outline: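 Broth microdilution per CLSI guidelines in RPMI 1640; inoculum set to OD530 0.08–0.13, diluted 1:50 then 1:20 to 2× strength and mixed 1:2 with 2-fold serial compound dilutions. Incubated at 35° C; MIC read per CLSI.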

[6] = tested on: Escherichia coli (ATCC 25922); assay: Time kill study, Example 33 (0 to 5 min); format: cell-based; details: 1×MIC
Outline: (§2)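 Viable counts (Log10 CFU/mL) were recorded at each time point. Equal volumes of strain suspension and compound solution were combined following CLSI guidelines, then aliquots were diluted, plated on agar and incubated 24 to 48 hrs before colony counting.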

[7] = tested on: Pseudomonas aeruginosa (ATCC 27853); assay: Time kill study, Example 33 (0 to 5 min); format: cell-based; details: 1×MIC
Outline: as §2

[8] = 1 min, listed as Nex-88, hydrochloride

## CCCCCCCCCCCCOC(=O)C(C)N(C)C (stereo not drawn) [Nex-05, Dodecyl 2-(dimethylamino)propanoate hydrochloride]
[1]
  pH: 2.87
[2]; ATCC25922, Table 19 summary of Example 33 and Example 35
  MIC: 3130 µg/mL
[2]; ATCC25922, read-out: MIC E. coli, n = 1
  MIC: 3130 µg/mL
[2]; ATCC25922, read-out: MIC E. coli, n = 2
  MIC: 3130 µg/mL
[2]; n = 1, listed as Nex-88, hydrochloride
  MIC E. coli: 3130 µg/mL
[3]; ATCC27853, Table 19 summary
  MIC: 6250 µg/mL
[3]; ATCC27853, read-out: MIC P. aeruginosa, n = 1
  MIC: 6250 µg/mL
[3]; ATCC27853, read-out: MIC P. aeruginosa, n = 2
  MIC: 6250 µg/mL
[4]
  MIC: 3130 µg/mL
[5]; ATCC90029, Table 19 summary
  MIC: > 12500 µg/mL
[5]; ATCC90029, read-out: MIC Candida albicans, n = 1
  MIC: > 12500 µg/mL
[5]; ATCC90029, read-out: MIC Candida albicans, n = 2
  MIC: > 12500 µg/mL
[6]; 0.5 min, hydrochloride
  Viable counts, Escherichia coli time kill study: <4.0 Log10 CFU/mL
[6]; 0.5 min, listed as Nex-88, hydrochloride
  Viable counts, Escherichia coli time kill study: <4.0 Log10 CFU/mL
[6]; [8]
  Viable counts, Escherichia coli time kill study: <3.70 Log10 CFU/mL
[6]; 5 min, listed as Nex-88, hydrochloride
  Viable counts, Escherichia coli time kill study: <3.52 Log10 CFU/mL
[7]; [8]
  Viable counts, Pseudomonas aeruginosa time kill study: <3.70 Log10 CFU/mL
[7]; 5 min
  Viable counts, Pseudomonas aeruginosa time kill study: <3.52 Log10 CFU/mL
